We go through two compounds from patent US6197822A, “Neuropeptide antagonists” (Pfizer Inc., priority 2000, dated 2001).

This assay concerns the target T1, recombinant human NPY 5 receptors (Homo sapiens, UniProt Q15761).
T1 construct: made in house; host or cells: Sf9 insect cells, baculovirus-infected (membranes)
T1 sequence (Q15761 1-445): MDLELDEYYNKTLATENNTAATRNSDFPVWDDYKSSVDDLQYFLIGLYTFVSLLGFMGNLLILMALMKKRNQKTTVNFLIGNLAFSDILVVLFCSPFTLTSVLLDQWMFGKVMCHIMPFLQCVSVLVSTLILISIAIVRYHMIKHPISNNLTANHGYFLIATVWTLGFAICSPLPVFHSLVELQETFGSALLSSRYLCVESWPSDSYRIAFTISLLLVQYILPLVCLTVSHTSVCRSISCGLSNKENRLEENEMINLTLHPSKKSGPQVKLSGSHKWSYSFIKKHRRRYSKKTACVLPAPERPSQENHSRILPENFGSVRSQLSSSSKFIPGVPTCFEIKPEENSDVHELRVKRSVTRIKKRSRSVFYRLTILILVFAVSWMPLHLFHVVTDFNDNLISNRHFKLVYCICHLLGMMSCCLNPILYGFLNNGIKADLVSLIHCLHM
The experiment in a line: [125I]PYY binding at human NPY5 receptors expressed in Sf9 cells. The settings on record: [125I]PYY(porcine) displacement, membranes of baculovirus-infected Sf9 cells; read-out: Ki (binding constants in the NPY5). Here is the method:
[^125 I]PYY Binding at Human NPY Receptors Expressed in Sf9 Cells
Baculovirus-infected Sf9 cells expressing recombinant human NPY 5 receptors are harvested at 48 hours. At the time of harvest, cell pellets are resuspended in lysis buffer (20 mM Tris-HCl, pH 7.4, 5 mM EDTA, 0.5 μg/ml leupeptin, 2 μg/ml Aprotonin and […]) and homogenized using a Polytron (setting 3, 25-30 seconds). Homogenates are centrifuged at 4° C. for 5 minutes at 200 x g ([…]) to pellet the nuclei. The supernatant is collected into a fresh tube and centrifuged at 48,000 x g for 10 minutes. Pellets are washed once in lysis buffer and centrifuged. The final pellet is resuspended in PBS and stored in aliquots at -80° C. Purified membranes are washed using PBS and resuspended in binding buffer (50 mM Tris(HCl), pH 7.4, 5 mM KCl, 120 mM NaCl, 2 mM CaCl2, 1 mM MgCl2, 0.1% bovine serum albumin (BSA)). Membranes (20 μg/reaction tube) are added to polypropylene tubes containing 0.035 nM [^125 I]PYY(porcine), displacers ranging from 10^-12 M to 10^-5 M, and buffer to yield a final volume of 0.5 mL. Nonspecific binding is determined in the presence of 1 μM NPY(human) and accounts for 10% of total binding. Following a 2 hour incubation at room temperature, the reaction is terminated by rapid vacuum filtration. […] IC50 values were calculated with the non-linear curve fitting program RS/1 (SigmaPlot, Jandel).

For orientation: Ki means the dissociation constant of the complex between target and ligand, obtained from inhibition or displacement. Regarding `Cc1ccc(NC(=O)C(c2ccccc2)c2ccccc2)cc1` [--CH3], the Ki is 800 nM.

Take `CCN(CC)c1ccc(NC(=O)C(c2ccccc2)c2ccccc2)cc1` [--N(C2 H5)2]: the Ki came out at 8 nM.
